System: serum lipids (TC, TG, HDL, TC/HDL ratio) in humans
Assay: Multicenter double-blind random trial: effect of AP on serum total cholesterol and triglycerides in humans
Type: in vivo, human
Description: A multicenter study, based on the Fujian Traditional Chinese Medicine Research Institute protocol, involved 476 patients between November 1994 and August 1996.
The total patient population was approximately 61% male, with the AP group being approximately 60% male and the control group approximately 64% male. Patients in each group were […] and averaged approximately 54-55 years of age. 164 patients had total cholesterol (TC) levels of 6.5-8.0 mmol/L, and 275 patients had triglycerides (TG) levels of 1.6-3.0 mmol/L. 131 patients had low high density lipoprotein (HDL) (<1.04 mmole/L for male, HDL<1.17 mmol/L for female). 201 patients had raised TC/HDL ratios (>5).
Patients with liver, renal and thyroid disease, as well as pregnant women and those who were on medications that could affect serum lipid readings, were excluded. Also excluded were patients who within the last year had had acute myocardial infarction, cerebral vascular diseases, major trauma and/or major surgery, as well as those with severe coronary or renal failure.
All medications were taken 2 times daily for 8 weeks. Although medications were administered by capsules, it should be understood that medications could be administered by tablets, liquids and/or pills as well.

## CC(C)OC(=O)C(C)(C)Oc1ccc(C(=O)c2ccc(Cl)cc2)cc1 [FF, Fenofibrate]
HDL, start vs end of 8 weeks
  Range of decreases (HDL level): 0.18 ± 0.15 mmol/L
After 8 weeks, AP 3 x 200 mg capsules or FF 100 mg tablet, 2 times daily
  End HDL: 1.06 ± 0.27 mmol/L
baseline, patients with low HDL
  Start HDL: 0.88 ± 0.27 mmol/L
Total cholesterol after 8 weeks, AP 3 x 200 mg capsules or FF 100 mg tablet, 2 times daily
  End TC: 6.46 ± 1.33 mmol/L
Total cholesterol, baseline, patients with raised TC
  Start TC: 7.81 ± 1.38 mmol/L
Triglyceride table, after 8 weeks, AP 3 x 200 mg capsules or FF 100 mg tablet, 2 times daily
  End TC (table: Effect of AP on triglyceride (TG) level): 1.96 ± 1.10 mmol/L
Triglyceride table, baseline, patients with raised TG
  Start TC (table: Effect of AP on triglyceride (TG) level): 2.94 ± 1.38 mmol/L
